Source: patent publication US8003119B2, “Composition for pharmaceutical or dietetic use for combating hair loss” (Giuliani S.p.A., priority 2002, dated 2011)

Experiments:
Assay type in all cases: in vivo, man
[1] = test system: volunteers with telogenic defluvium; assay: Clinical study: general dermatological visit; details: oral, one capsule a day (spermidine 0.50 mg) for 60 days; compared with placebo group 3
Procedure: (§1) This controlled, randomized double-blind study was performed according to the present invention by means of the protocols below.
(§2) Sixty volunteers of both sexes and ranging between 18 and 60 years old were divided into three groups of 20 individuals each, all having the same level of pathology, i.e. telogenic defluvium existing for at least 2 months.
(§3) Some of these individuals were treated for 60 days with one capsule a day of a composition of the invention, according to the following scheme:
(§4) Group 1: 20 individuals treated with a composition of the invention containing spermidine alone (0.50 mg per capsule).
(§5) Group 2: 20 individuals treated with a composition of the invention according to Example 1 described later (spermidine 0.50 mg per capsule). […]
(§6) The parameters evaluated were the following: • A) General dermatological visit. • B) Microscopic evaluation of the shaft of the hairs (diameter and possible structural changes in the hair). • C) Trichogram, i.e. evaluation of the bulbs in the anagenic (growth) phase, catagenic (involutive stasis) phase, telogenic (pathological precocious hair loss) phase and exogenic (physiological loss of hairs since they are replaced with new hairs). • D) Haematochemical analysis. • E) Pull test (mechanical tensile strength of the hair). • F) Wash test (count of the hairs lost after washing with shampoo). • G) Possible side effects. […]

[2] = test system: volunteers with telogenic defluvium; assay: Clinical study: microscopic evaluation of the hair shaft; details: oral, one capsule a day (spermidine 0.50 mg) for 60 days; placebo virtually unchanged
Procedure: as §1, §2, §3, §4, §5, §6

[3] = test system: volunteers with telogenic defluvium; assay: Clinical study: trichogram (evaluation of the hair bulbs by phase)
Procedure: as §1, §2, §3, §4
(§7) Group 2: 20 individuals treated with a composition of the invention according to Example 1 described later (spermidine 0.50 mg per capsule).
(§8) Group 3: 20 individuals treated with a placebo, in capsules.
(§9) The parameters evaluated were the following: • A) General dermatological visit. • B) Microscopic evaluation of the shaft of the hairs (diameter and possible structural changes in the hair). • C) Trichogram, i.e. evaluation of the bulbs in the anagenic (growth) phase, catagenic (involutive stasis) phase, telogenic (pathological precocious hair loss) phase and exogenic (physiological loss of hairs since they are replaced with new hairs). • D) Haematochemical analysis. • E) Pull test (mechanical tensile strength of the hair). • F) Wash test (count of the hairs lost after washing with shampoo). • G) Possible side effects.
(§10) These parameters were evaluated at time T0 (before the start of the treatment); at time T1 (at the end of the 60 days of treatment); and finally at time T2 (30 days after stopping the administration).
In this regard, reference is made to the diagrams of FIGS. 1 and 2 in the attached drawings. These show the trichogram of the anagenic and telogenic phases at times T0 (before the start of the treatment); at time T1 (at the end of the 60 days of treatment); and finally at time T2 (30 days after stopping the administration) for the individuals of the three groups, 1 (grey column), 2 (black column) and 3 (pale column). The percentage of hairs in the anagenic phase (FIG. 1) and in the telogenic phase (FIG. 2) for the treated individuals belonging to the three groups under consideration is shown on the y-axis, and the said times T are shown on the x-axis, under which are tabulated the said percentages found.

[4] = test system: volunteers with telogenic defluvium; assay: Clinical study: haematochemical analysis; details: oral, one capsule a day for 60 days
Procedure: as §1, §2, §3, §4, §5, §6

[5] = test system: volunteers with telogenic defluvium; assay: Clinical study: pull test (mechanical tensile strength of the hair); details: oral, one capsule a day for 60 days; placebo virtually unchanged
Procedure: as §1, §2, §3, §4, §5, §6

[6] = test system: volunteers with telogenic defluvium; assay: Clinical study: wash test (count and phase of hairs lost after shampoo)
Procedure: as §1, §2, §3, §4, §7, §8, §9, §10
This test makes it possible not only to quantify the number of hairs lost after shampooing, but also, by means of a suitable microscopic analysis, to evaluate the phase of the cycle in which the bulb was found when the hair fell out: pathological loss (telogenic) or phase of physiological exchange (exogenic).
The test results are given in the graph of FIG. 3 in the attached drawings. […]

[7] = oral, one capsule a day for 60 days, placebo not significantly changed

## NCCCCNCCCN [spermidine, N-(3-aminopropyl)tetramethylenediamine]
[1]
  hair loss at dermatological visit: appreciable and significant reduction in the hair loss
  structure of the hair shaft at dermatological visit: improvement in the structure of the shaft
[2]
  diameter of the hair shaft: increases quite substantially
[3]; T1 = end of the 60 days of treatment, relative to T0, placebo 2.7%
  increase in the anagenic phase at T1: 8.1%
[3]; T1 = end of the 60 days of treatment, placebo increased by about 1.88%
  decrease in the telogenic phase at T1: 9.1%
[3]; T2 = 30 days after stopping the 60-day administration, placebo 4.16%
  decrease in the telogenic phase at T2: 6.76%
[3]; T2 = 30 days after stopping the 60-day administration, placebo 7.79%
  increase in the anagenic phase at T2 relative to T0: 17.2%
[3]; [7]
  number of bulbs in the anagenic phase (in words): increases significantly
  telogenic phase (in words): decreases significantly
[4]
  haematochemical analyses: within the norm
[5]
  mechanical tensile strength of the hair (pull test): increased significantly
[6]; bulbs of hairs lost in the wash test, placebo more than 90%
  lost hairs in the telogenic phase (pathological loss): 63%
[6]; bulbs of hairs lost in the wash test, placebo only 3%
  lost hairs in the exogenic phase (physiological loss): 33%
[6]; oral, one capsule a day for 60 days, placebo unchanged
  number of hairs lost in the wash test: decreases significantly
